This experiment concerns C. elegans. As to the kind of experiment: microbe, parasite or virus in culture. The settings on record: Caenorhabditis elegans.
Setting [1] is: 0 h, read-out: Percentage of motility inhibition 0 h, Table S2, C. elegans SS assay, 110 μM, 0 h, averages of 4 data points.
Where [2] appears, read: 24 h, read-out: Percentage of motility inhibition 24 h, Table S2, C. elegans SS assay, 110 μM, 24 h, averages of 4 data points.
[3] abbreviates: 0 h, read-out: Percentage of motility inhibition 0 h.
[4] abbreviates: 24 h, read-out: Percentage of motility inhibition 24 h.

Each structure is given as a SMILES string. Like-named read-outs stand apart in the source and are kept apart here.

As to `C[C@@H]1CC[C@@]2(NC1)O[C@H]1C[C@H]3[C@@H]4CC=C5C[C@@H](O[C@@H]6O[C@H](CO)[C@@H](O[C@@H]7O[C@@H](C)[C@H](O)[C@@H](O)[C@H]7O)[C@H](O)[C@H]6O[C@@H]6O[C@@H](C)[C@H](O)[C@@H](O)[C@H]6O)CC[C@]5(C)[C@H]4CC[C@]3(C)[C@H]1[C@@H]2C` [Solamargine], the inhibition (as a rule, the share of the control response that was lost under treatment) at 110 µM reads like this: under setting [1], 0%; under setting [2], 0%.

Regarding `C[C@H]1CC[C@@H]2[C@@H](C)[C@H]3[C@H](C[C@H]4[C@@H]5CC=C6C[C@@H](O)CC[C@]6(C)[C@H]5CC[C@]34C)N2C1` [Solanidine], the inhibition at 110 µM reads like this: under setting [1], 0%; under setting [2], 0%.

Take `C[C@@H]1CC[C@@]2(NC1)O[C@H]1C[C@H]3[C@@H]4CC=C5C[C@@H](O)CC[C@]5(C)[C@H]4CC[C@]3(C)[C@H]1[C@@H]2C` [Solasodine]: the inhibition at 110 µM under setting [1] was found to be 12% and the inhibition at 110 µM under setting [2] is 20%.

As to `C[C@@H]1CC[C@@]2(NC1)O[C@H]1C[C@H]3[C@@H]4CC=C5C[C@@H](O[C@@H]6O[C@H](CO)[C@H](O)[C@H](O[C@@H]7O[C@H](CO)[C@@H](O)[C@H](O)[C@H]7O)[C@H]6O[C@@H]6O[C@@H](C)[C@H](O)[C@@H](O)[C@H]6O)CC[C@]5(C)[C@H]4CC[C@]3(C)[C@H]1[C@@H]2C` [Solasonine], the inhibition at 110 µM under setting [1] was 0% and the inhibition at 110 µM under setting [2] stood at 0%.

With `C=C1[C@H]2C[C@@]3([C@@H]1O)[C@@H](CC2=O)[C@]12[C@@H]4C[C@H]3[C@H]1N(CC)C[C@]4(C)CC[C@@H]2O` [Songorine], the inhibition at 110 µM is, setting by setting: under setting [3], 5%; under setting [4], 9%.

As for `O=C1C=CC[C@@H]2[C@H]3CCCN4CCC[C@@H](CN12)[C@@H]34` [Sophocarpine], the inhibition at 110 µM amounted to 11% under setting [1] and 9% under setting [2].

Turning to `C=C(C)[C@H](CC=C(C)C)Cc1c(O)cc(O)c2c1O[C@H](c1ccc(O)cc1O)CC2=O` [Sophoraflavanone G], the inhibition at 110 µM runs as follows: under setting [3], 55%; under setting [4], 4%.

`O=c1c(-c2ccc(O[C@@H]3O[C@H](CO)[C@@H](O)[C@H](O)[C@H]3O)cc2)coc2cc(O)cc(O)c12` [Sophoricoside]: the inhibition at 110 µM was 0% under setting [3] and 9% under setting [4].

With `CC1(C)C[C@H]2C3=CC[C@@H]4[C@@]5(C)CC[C@H](O)[C@](C)(CO)[C@@H]5CC[C@@]4(C)[C@]3(C)CC[C@@]2(C)[C@H](O)[C@@H]1O` [Soyasapogenol A], the inhibition at 110 µM stood at 5% under setting [1] and 3% under setting [2].

In the case of `CC1(C)C[C@@H](O)[C@]2(C)CC[C@]3(C)C(=CC[C@@H]4[C@@]5(C)CC[C@H](O)[C@](C)(CO)[C@@H]5CC[C@]43C)[C@@H]2C1` [Soyasapogenol B], the inhibition at 110 µM was determined as 9% under setting [1] and 39% under setting [2].

Regarding `C[C@@H]1CN(c2c(F)c(N)c3c(=O)c(C(=O)O)cn(C4CC4)c3c2F)C[C@H](C)N1` [Sparfloxacin], the inhibition at 110 µM under setting [1] worked out at 37% and the inhibition at 110 µM under setting [2] was 11%.

On to `O=C1NCN(c2ccccc2)C12CCN(CCCOc1ccc(F)cc1)CC2` [Spiramide], for which the inhibition at 110 µM under setting [1] turned out to be 49% and the inhibition at 110 µM under setting [2] is 6%.

On to `Cc1cn([C@H]2C=C[C@@H](CO)O2)c(=O)[nH]c1=O` [Stavudine], for which the inhibition at 110 µM by setting is: under setting [1], 25%; under setting [2], 3%.

`CCCCCCCCCCCCCCCCCC(=O)O` [Stearic acid]: the inhibition at 110 µM under setting [1] was determined as 0% and the inhibition at 110 µM under setting [2] is 1%.

Consider `C=C1C[C@@]23CC[C@H]4[C@@](C)(CCC[C@@]4(C)C(=O)O)[C@@H]2CC[C@]1(O)C3` [Steviol], for which the inhibition at 110 µM stood at 13% under setting [1] and 34% under setting [2].

In the case of `C=C1C[C@@]23CC[C@H]4[C@@](C)(CCC[C@@]4(C)C(=O)O[C@@H]4O[C@H](CO)[C@@H](O)[C@H](O)[C@H]4O)[C@@H]2CC[C@]1(O[C@@H]1O[C@H](CO)[C@@H](O)[C@H](O)[C@H]1O[C@@H]1O[C@H](CO)[C@@H](O)[C@H](O)[C@H]1O)C3` [Stevioside], the inhibition at 110 µM runs as follows: under setting [1], 15%; under setting [2], 0%.

As for `O=C(O)CCC(=O)O` [Succinic acid], the inhibition at 110 µM reads like this: under setting [1], 14%; under setting [2], 15%.

Consider `O=C(O)CCC(=O)Nc1ccc(S(=O)(=O)Nc2nccs2)cc1` [Succinylsulfathiazole], for which the inhibition at 110 µM under setting [1] came to 31% and the inhibition at 110 µM under setting [2] stood at 17%.

As to `CC1(C)[C@H](C(=O)O)N2C(=O)C[C@H]2S1(=O)=O` [Sulbactam], the inhibition at 110 µM under setting [3] came to 1% and the inhibition at 110 µM under setting [4] was 9%.

For the molecule `Nc1ccc(S(=O)(=O)Nc2ccc(Cl)nn2)cc1` [Sulfachloropyridazine], the inhibition at 110 µM runs as follows: under setting [1], 14%; under setting [2], 0%.

With `Nc1ccc(S(=O)(=O)Nc2ncccn2)cc1` [Sulfadiazine], the inhibition at 110 µM reads like this: under setting [1], 14%; under setting [2], 7%.

In the case of `COc1cc(NS(=O)(=O)c2ccc(N)cc2)nc(OC)n1` [Sulfadimethoxine], the inhibition at 110 µM by setting is: under setting [1], 15%; under setting [2], 3%.

For `COc1ncnc(NS(=O)(=O)c2ccc(N)cc2)c1OC` [Sulfadoxine], the inhibition at 110 µM reads like this: under setting [1], 18%; under setting [2], 5%.

As for `[H]/N=C(/N)NS(=O)(=O)c1ccc(N)cc1` [Sulfaguanidine], the inhibition at 110 µM worked out at 22% under setting [1] and 8% under setting [2].

Consider `COc1nccnc1NS(=O)(=O)c1ccc(N)cc1` [Sulfalene], for which the inhibition at 110 µM reads like this: under setting [1], 2%; under setting [2], 15%.

For the molecule `Cc1ccnc(NS(=O)(=O)c2ccc(N)cc2)n1` [Sulfamerazine], the inhibition at 110 µM is, setting by setting: under setting [1], 12%; under setting [2], 7%.

`COc1cnc(NS(=O)(=O)c2ccc(N)cc2)nc1` [Sulfameter]: the inhibition at 110 µM reads like this: under setting [1], 25%; under setting [2], 8%.

Take `Cc1cc(C)nc(NS(=O)(=O)c2ccc(N)cc2)n1` [Sulfamethazine]: the inhibition at 110 µM was 5% under setting [1] and 3% under setting [2].

Take `Cc1nnc(NS(=O)(=O)c2ccc(N)cc2)s1` [Sulfamethizole]: the inhibition at 110 µM runs as follows: under setting [1], 4%; under setting [2], 0%.

As to `Cc1cc(NS(=O)(=O)c2ccc(N)cc2)no1` [Sulfamethoxazole], the inhibition at 110 µM runs as follows: under setting [1], 30%; under setting [2], 11%.

For the molecule `COc1ccc(NS(=O)(=O)c2ccc(N)cc2)nn1` [Sulfamethoxypyridazine], the inhibition at 110 µM under setting [1] is 2% and the inhibition at 110 µM under setting [2] is 8%.

As to `COc1cc(NS(=O)(=O)c2ccc(N)cc2)ncn1` [Sulfamonomethoxine], the inhibition at 110 µM turned out to be 6% under setting [1] and 1% under setting [2].

As to `Nc1ccc(S(N)(=O)=O)cc1` [Sulfanilamide], the inhibition at 110 µM came to 21% under setting [1] and 7% under setting [2].

In the case of `Nc1ccc(S(=O)(=O)Nc2ccnn2-c2ccccc2)cc1` [Sulfaphenazole], the inhibition at 110 µM reads like this: under setting [1], 0%; under setting [2], 3%.

As to `Cc1noc(NS(=O)(=O)c2ccc(N)cc2)c1C` [Sulfisoxazole], the inhibition at 110 µM reads like this: under setting [1], 9%; under setting [2], 7%.

On to `CC(=O)NC[C@H]1CN(c2ccc(N3CCSCC3)c(F)c2)C(=O)O1` [Sutezolid], for which the inhibition at 110 µM under setting [1] turned out to be 16% and the inhibition at 110 µM under setting [2] stood at 4%.

`COc1cc(O)c2c(=O)c3c(O[C@@H]4O[C@H](CO)[C@@H](O)[C@H](O)[C@H]4O)ccc(O)c3oc2c1` [Swertianolin]: the inhibition at 110 µM under setting [1] is 11% and the inhibition at 110 µM under setting [2] amounted to 0%.

Take `COc1cc(C=O)cc(OC)c1O` [Syringaldehyde]: the inhibition at 110 µM is, setting by setting: under setting [3], 4%; under setting [4], 3%.

As to `CC[C@]12C=CCN3CC[C@]4(C(=C(C(=O)OC)C1)Nc1ccccc14)[C@@H]32` [Tabersonine], the inhibition at 110 µM came to 0% under setting [1] and 1% under setting [2].

With `CCN1C[C@]2(COC)CC[C@H](OC)[C@]34C1[C@H](C[C@H]23)[C@@]1(O)C[C@H](OC)[C@H]2C[C@@H]4[C@@H]1[C@H]2O` [Talatisamine], the inhibition at 110 µM is, setting by setting: under setting [1], 6%; under setting [2], 0%.

For the molecule `COc1ccc(-c2oc3cc(O)cc(O)c3c(=O)c2O)cc1O` [Tamarixetin], the inhibition at 110 µM was found to be 20% under setting [1] and 10% under setting [2].

With `COc1ccc(-c2cc(=O)c3c(OC)c(OC)c(OC)c(OC)c3o2)cc1` [Tangeretin], the inhibition at 110 µM under setting [1] came to 14% and the inhibition at 110 µM under setting [2] is 8%.

Take `Cc1coc2c1C(=O)C(=O)c1c-2ccc2c(C)cccc12` [Tanshinone I]: the inhibition at 110 µM worked out at 0% under setting [1] and 3% under setting [2].

Consider `NCCS(=O)(=O)O` [Taurine], for which the inhibition at 110 µM by setting is: under setting [1], 8%; under setting [2], 0%.

Take `C[C@H](CCC(=O)NCCS(=O)(=O)O)[C@H]1CC[C@H]2[C@@H]3CC[C@@H]4C[C@H](O)CC[C@]4(C)[C@H]3C[C@H](O)[C@]12C` [Taurodeoxycholic acid]: the inhibition at 110 µM runs as follows: under setting [1], 0%; under setting [2], 7%.

With `O=C1c2c(O)cc(O)cc2OC(c2ccc(O)c(O)c2)C1O` (centres unmarked) [Taxifolin], the inhibition at 110 µM is, setting by setting: under setting [1], 10%; under setting [2], 14%.

On to `C[C@]1(Cn2ccnn2)[C@H](C(=O)O)N2C(=O)C[C@H]2S1(=O)=O` [Tazobactam], for which the inhibition at 110 µM under setting [1] amounted to 16% and the inhibition at 110 µM under setting [2] is 21%.

Take `C[C@@H](O)[C@H]1C(=O)N2C(C(=O)O)=C(SC3CN(C4=NCCS4)C3)[C@H](C)[C@H]12` [Tebipenem]: the inhibition at 110 µM by setting is: under setting [1], 0%; under setting [2], 7%.

Turning to `CC(C)(C)C(O)(CCc1ccc(Cl)cc1)Cn1cncn1` (centres unmarked) [Tebuconazole], the inhibition at 110 µM is, setting by setting: under setting [1], 32%; under setting [2], 1%.
